This is an account of results in US10172358B2, “Thiopicolinamide compounds with fungicidal activity” (Dow AgroSciences LLC, priority 2016, dated 2019).

Like-named read-outs stand apart in the source and are kept apart here.

One data set concerns Puccinia triticina. The data set is described as follows: Fungicidal activity: wheat brown rust (PUCCRT), disease control on wheat seedlings. The data set is classed as in vivo, Puccinia triticina on wheat plants (variety Yuma). Particulars: for pest or weed control at 100 ppm: high volume application; for pest or weed control at 121.5 g/ha: low volume application, 121.5 g/H. How it is done:
Technical grades of materials were dissolved in acetone, which were then mixed with nine volumes of water (H2O) containing 110 ppm Triton X-100. The fungicide solutions were applied onto wheat seedlings using an automated booth sprayer to run-off. All sprayed plants were allowed to air dry prior to further handling. All fungicides were evaluated using the aforementioned method for their activity vs. all target diseases, unless stated otherwise. Wheat leaf blotch and brown rust activity were also evaluated using track spray applications, in which case the fungicides were formulated as EC formulations, containing 0.1% Trycol 5941 in the spray solutions. Evaluation of Fungicidal Activity: Wheat Brown Rust (Puccinia triticina; Synonym: Puccinia recondita f. Sp. Tritici; Bayer Code PUCCRT) Wheat plants (variety Yuma) were grown from seed in a greenhouse in 50% mineral soil/50% soil-less Metro mix until the first leaf was fully emerged, with 7-10 seedlings per pot. These plants were inoculated with an aqueous spore suspension of Puccinia triticina either prior to or after fungicide treatments. After inoculation the plants were kept in a dark dew room at 22° C. with 100% relative humidity overnight to permit spores to germinate and infect the leaf. The plants were then transferred to a greenhouse set at 24° C. for disease to develop. Fungicide formulation, application and disease assessment followed the procedures as described in the Example A. The results of the evalution are shown below in Table 4.

The next data set deals with Zymoseptoria tritici. The data set is described as follows: Fungicidal activity: leaf blotch of wheat (SEPTTR), disease control on wheat seedlings. It counts as in vivo, Zymoseptoria tritici on wheat plants (variety Yuma). Particulars: for pest or weed control at 100 ppm: high volume application; for pest or weed control at 121.5 g/ha: low volume application, 121.5 g/H. As for the experimental part:
Evaluation of Fungicidal Activity: Leaf Blotch of Wheat (Zymoseptoria Tritici; Bayer Code […]) Technical grades of materials were dissolved in acetone, which were then mixed with nine volumes of water (H2O) containing 110 ppm Triton X-100. The fungicide solutions were applied onto wheat seedlings using an automated booth sprayer to run-off. All sprayed plants were allowed to air dry prior to further handling. All fungicides were evaluated using the aforementioned method for their activity vs. all target diseases, unless stated otherwise. Wheat leaf blotch and brown rust activity were also evaluated using track spray applications, in which case the fungicides were formulated as EC formulations, containing 0.1% Trycol 5941 in the spray solutions. Wheat plants (variety Yuma) were grown from seed in a greenhouse in 50% mineral soil/50% soil-less Metro mix until the first leaf was fully emerged, with 7-10 seedlings per pot. These plants were inoculated with an aqueous spore suspension of Zymoseptoria tritici either prior to or after fungicide treatments. After inoculation the plants were kept in 100% relative humidity (one day in a dark dew chamber followed by two to three days in a lighted dew chamber at 20° C.) to permit spores to germinate and infect the leaf. The plants were then transferred to a greenhouse set at 20° C. for disease to develop. When disease symptoms were fully expressed on the 1st leaves of untreated plants, infection levels were assessed on a scale of 0 to 100 percent disease severity. Percent disease control was calculated using the ratio of disease severity on treated plants relative to untreated plants.

In the next data set the test system is Phakopsora pachyrhizi. The data set is described as follows: Fungicidal activity: Asian soybean rust (PHAKPA), disease control on soybean seedlings. The data set is classed as in vivo. How it is done:
Evaluation of Fungicidal Activity: Asian Soybean Rust (Phakopsora Pachyrhizi; Bayer Code PHAKPA)
Technical grades of materials were dissolved in acetone, which were then mixed with nine volumes of H2O containing 0.011% Tween 20. The fungicide solutions were applied onto soybean seedlings using an automated booth sprayer to run-off. All sprayed plants were allowed to air dry prior to further handling.
Soybean plants (variety Williams 82) were grown in soil-less Metro mix, with one plant per pot. Two weeks old seedlings were used for testing. Plants were inoculated either 3 days prior to or 1 day after fungicide treatments. Plants were incubated for 24 h in a dark dew room at 22° C. and 100% relative humidity then transferred to a growth room at 23° C. for disease to develop. Disease severity was assessed on the sprayed leaves.

Where [1] appears, read: 24 h, 1 day protectant, read-out: PUCCRT 1DP disease control, HV activity at 100 ppm.
[2] abbreviates: 72 h, 3 day curative, read-out: PUCCRT 3DC disease control, HV activity at 100 ppm.
Where [3] appears, read: 24 h, 1 day protectant, read-out: SEPTTR 1DP disease control, HV activity at 100 ppm.
The mark [4] stands for this setting: 72 h, 3 day curative, read-out: SEPTTR 3DC disease control, HV activity at 100 ppm.
Setting [5] is: 24 h, 1 day protectant, read-out: PUCCRT 1DP disease control, LV activity at 121.5 g/H.
The mark [6] stands for this setting: 72 h, 3 day curative, read-out: PUCCRT 3DC disease control, LV activity at 121.5 g/H.
Setting [7] is: 24 h, 1 day protectant, read-out: PHAKPA 1DP disease control at 25 ppm.
The mark [8] stands for this setting: 72 h, 3 day curative, read-out: PHAKPA 3DC disease control at 25 ppm.
Where [9] appears, read: 24 h, 1 day protectant, read-out: SEPTTR 1DP disease control, LV activity at 121.5 g/H.
[10] abbreviates: 72 h, 3 day curative, read-out: SEPTTR 3DC disease control, LV activity at 121.5 g/H.

For `COc1cc(F)ccc1C(c1ccc(F)cc1OC)[C@H](C)OC(=O)[C@H](C)NC(=S)c1nccc(OC)c1O` [Compound 23], the melting point was in the range of 59 to 75 °C. For the same compound, the pest or weed control at 100 ppm with Puccinia triticina (setting [1]) was more than 80%. The pest or weed control at 100 ppm with Puccinia triticina (setting [2]) is not above 80%. The pest or weed control at 100 ppm in the data set with Zymoseptoria tritici (setting [3]) was more than 80%. Besides, the pest or weed control at 100 ppm in the data set with Zymoseptoria tritici (setting [4]) is more than 80%.

As for `COc1cc(F)ccc1[C@@H](c1ccc(F)cc1)[C@H](C)OC(=O)[C@H](C)NC(=S)c1nccc(OC)c1O` [Compound 24], the melting point lay in the range of 54 to 70 °C. Also, the pest or weed control at 100 ppm in the data set on Puccinia triticina (setting [1]) was more than 80%. In the data set with Puccinia triticina (setting [2]), the pest or weed control at 100 ppm was not above 80%. Besides, the pest or weed control at 100 ppm with Zymoseptoria tritici (setting [3]) is more than 80%. Moreover, the pest or weed control at 100 ppm with Zymoseptoria tritici (setting [4]) is more than 80%.

In turn, `CC[C@H](OC(=O)[C@H](C)NC(=S)c1nccc(OC)c1O)[C@@H](C)Oc1ccccc1` [Compound 25] yielded a melting point of 80 to 86 °C. In the data set with Puccinia triticina (setting [1]), the pest or weed control at 100 ppm is not above 80%.

Compound `COc1ccnc(C(=S)N[C@H](C)C(=O)O[C@H](C)C(c2ccc(F)cc2)c2ccc(F)cc2)c1O` [Compound 28] showed a melting point of 53 to 64 °C.

With `COc1ccnc(C(=S)N[C@@H](C)C(=O)O[C@@H](C)C(c2ccc(F)cc2F)c2ccc(F)cc2F)c1OC(C)=O` [Compound 63], the pest or weed control at 121.5 g/ha with Puccinia triticina (setting [5]) is more than 80%; with Puccinia triticina (setting [6]), not above 80%; in the data set with Zymoseptoria tritici (setting [9]) it was more than 80%; with Zymoseptoria tritici (setting [10]), more than 80%. In addition, the pest or weed control at 25 ppm in the data set with Phakopsora pachyrhizi (setting [7]) was more than 80%; with Phakopsora pachyrhizi (setting [8]), not above 80%.

Turning to `COc1ccnc(C(=S)N[C@@H](C)C(=O)O[C@@H](C)[C@@H](c2ccc(F)cc2)c2ccc(F)cc2C)c1OC(C)=O` [Compound 64], the pest or weed control at 121.5 g/ha in the data set with Puccinia triticina (setting [5]) was more than 80%; with Puccinia triticina (setting [6]), not above 80%; with Zymoseptoria tritici (setting [9]), more than 80%; in the data set with Zymoseptoria tritici (setting [10]), more than 80%. The pest or weed control at 25 ppm in the data set with Phakopsora pachyrhizi (setting [7]) and with Phakopsora pachyrhizi (setting [8]) was more than 80% each time.

With `COc1cc(C)ccc1C(c1ccc(C)cc1OC)[C@H](C)OC(=O)[C@H](C)NC(=S)c1nccc(OC)c1OC(C)=O` [Compound 65], the pest or weed control at 121.5 g/ha in the data set on Puccinia triticina (setting [5]), in the data set with Puccinia triticina (setting [6]), in the data set on Zymoseptoria tritici (setting [9]) and in the data set with Zymoseptoria tritici (setting [10]) was more than 80% each time. Moreover, the pest or weed control at 25 ppm with Phakopsora pachyrhizi (setting [7]) was more than 80%; in the data set on Phakopsora pachyrhizi (setting [8]), not above 80%.

Turning to `COc1cc(F)ccc1C(c1ccc(F)cc1OC)[C@H](C)OC(=O)[C@H](C)NC(=S)c1nccc(OC)c1OC(C)=O` [Compound 67], the pest or weed control at 121.5 g/ha is more than 80% in the data set with Puccinia triticina (setting [5]), not above 80% in the data set on Puccinia triticina (setting [6]), more than 80% in the data set on Zymoseptoria tritici (setting [9]) and more than 80% in the data set with Zymoseptoria tritici (setting [10]). For the same compound, the pest or weed control at 25 ppm in the data set on Phakopsora pachyrhizi (setting [7]) is more than 80%; in the data set with Phakopsora pachyrhizi (setting [8]), not above 80%.

For `COc1ccnc(C(=S)N[C@H](C)C(=O)O[C@H](C)C(c2ccc(F)cc2)c2ccc(F)cc2)c1OC(C)=O` [Compound 68], the pest or weed control at 121.5 g/ha in the data set on Puccinia triticina (setting [6]) and in the data set with Zymoseptoria tritici (setting [9]) was not above 80% throughout. For the same compound, the pest or weed control at 25 ppm in the data set with Phakopsora pachyrhizi (setting [7]) is not above 80%.

`COc1ccnc(C(=S)N[C@@H](C)C(=O)O[C@@H](C(C)C)[C@@H](C)Oc2ccccc2)c1OC(C)=O` [Compound 69]: the pest or weed control at 121.5 g/ha in the data set on Puccinia triticina (setting [5]), with Puccinia triticina (setting [6]) and with Zymoseptoria tritici (setting [10]) was not above 80% each time. The pest or weed control at 25 ppm with Phakopsora pachyrhizi (setting [7]) was not above 80%.

For `COc1cc(F)ccc1[C@@H](c1ccc(F)cc1)[C@H](C)OC(=O)[C@H](C)NC(=S)c1nccc(OC)c1OC(C)=O` [Compound 70], the pest or weed control at 121.5 g/ha in the data set with Puccinia triticina (setting [5]), in the data set with Puccinia triticina (setting [6]), in the data set with Zymoseptoria tritici (setting [9]) and in the data set with Zymoseptoria tritici (setting [10]) was more than 80% each time. Further, the pest or weed control at 25 ppm with Phakopsora pachyrhizi (setting [7]) was more than 80%; in the data set on Phakopsora pachyrhizi (setting [8]), not above 80%.

As to `COc1ccnc(C(=S)N[C@@H](C)C(=O)O[C@@H](C)[C@H](Oc2ccc(Cl)cc2)C2CCCC2)c1OC(C)=O` [Compound 71], the pest or weed control at 121.5 g/ha in the data set on Puccinia triticina (setting [5]) is more than 80%; in the data set on Puccinia triticina (setting [6]), more than 80%; in the data set with Zymoseptoria tritici (setting [9]), more than 80%; in the data set on Zymoseptoria tritici (setting [10]), not above 80%. In addition, the pest or weed control at 25 ppm in the data set with Phakopsora pachyrhizi (setting [7]) was not above 80%.

Consider `COc1ccnc(C(=S)N[C@@H](C)C(=O)O[C@@H](C)[C@@H](c2ccccc2)c2ccc(F)cc2C)c1OC(C)=O` [Compound 72], for which the pest or weed control at 121.5 g/ha with Puccinia triticina (setting [5]), in the data set on Puccinia triticina (setting [6]), in the data set with Zymoseptoria tritici (setting [9]) and with Zymoseptoria tritici (setting [10]) was more than 80% each time. The pest or weed control at 25 ppm with Phakopsora pachyrhizi (setting [7]) and in the data set with Phakopsora pachyrhizi (setting [8]) was more than 80% each time.

Turning to `COc1ccnc(C(=S)N[C@@H](C)C(=O)O[C@H](C(C)C)[C@H](C)Oc2ccc(F)cc2)c1OC(C)=O` [Compound 73], the pest or weed control at 121.5 g/ha in the data set on Puccinia triticina (setting [5]), in the data set on Puccinia triticina (setting [6]), with Zymoseptoria tritici (setting [9]) and with Zymoseptoria tritici (setting [10]) was more than 80% throughout. Further, the pest or weed control at 25 ppm in the data set on Phakopsora pachyrhizi (setting [7]) and in the data set with Phakopsora pachyrhizi (setting [8]) was more than 80% in each case.

As to `COc1ccnc(C(=S)N[C@@H](C)C(=O)O[C@@H](C)[C@H](Oc2ccccc2)c2ccc(F)cc2C)c1OC(C)=O` [Compound 74], the pest or weed control at 121.5 g/ha with Puccinia triticina (setting [5]) was more than 80%; in the data set with Puccinia triticina (setting [6]), not above 80%; with Zymoseptoria tritici (setting [9]) it was more than 80%; with Zymoseptoria tritici (setting [10]) it was more than 80%. For the same compound, the pest or weed control at 25 ppm in the data set on Phakopsora pachyrhizi (setting [7]) and in the data set on Phakopsora pachyrhizi (setting [8]) was not above 80% throughout.

For the compound `COc1ccnc(C(=S)N[C@@H](C)C(=O)O[C@@H](C)[C@H](Oc2ccccc2)c2ccc(F)cc2Cl)c1OC(C)=O` [Compound 75], the pest or weed control at 121.5 g/ha in the data set with Puccinia triticina (setting [5]) was more than 80%; in the data set on Puccinia triticina (setting [6]), not above 80%; in the data set on Zymoseptoria tritici (setting [9]), more than 80%; in the data set with Zymoseptoria tritici (setting [10]) it was more than 80%. Further, the pest or weed control at 25 ppm with Phakopsora pachyrhizi (setting [7]) and in the data set with Phakopsora pachyrhizi (setting [8]) was not above 80% in each case.

Regarding `COc1ccnc(C(=S)N[C@@H](C)C(=O)O[C@@H](C)[C@H](Oc2cccc(F)c2)C(C)C)c1OC(C)=O` [Compound 77], the pest or weed control at 121.5 g/ha is more than 80% in the data set with Puccinia triticina (setting [5]), more than 80% in the data set on Puccinia triticina (setting [6]), not above 80% in the data set on Zymoseptoria tritici (setting [9]) and more than 80% in the data set on Zymoseptoria tritici (setting [10]). Moreover, the pest or weed control at 25 ppm in the data set with Phakopsora pachyrhizi (setting [7]) is more than 80%; in the data set on Phakopsora pachyrhizi (setting [8]), not above 80%.

Take `COc1ccnc(C(=S)N[C@@H](C)C(=O)O[C@@H](C)C(c2ccc(F)cc2)c2ccc(F)cc2)c1OC(C)=O` [Compound 78]: the pest or weed control at 121.5 g/ha in the data set with Puccinia triticina (setting [5]) was more than 80%; with Puccinia triticina (setting [6]) it was not above 80%; in the data set with Zymoseptoria tritici (setting [9]), more than 80%; with Zymoseptoria tritici (setting [10]), more than 80%. Further, in the data set with Phakopsora pachyrhizi (setting [7]), the pest or weed control at 25 ppm is not above 80%.

As a reminder, the melting point is the temperature, or range, at which the solid turns liquid.
